# Test results from article PMC3578829, “A Small Molecule (Pluripotin) as a Tool for Studying Cancer Stem Cell Biology: Proof of Concept” (PLoS ONE, 2013).
# Values joined by “and” are separate entries in the source; they are usually repeats but may differ in a detail not shown here. Equal values may be shown once.
# Experiments:
# OCT4 [1] = assay: Immunoblotting of OCT4 in HCC-2998; assay type: cell-based; conditions: 0.1 µM SC-1
# Method: (§1) Standard protein electrophoretic techniques were followed using previously published protocols. For these studies, the colon lines were cultured for 5 days with and without treatments, harvested with trypsin (0.25% trypsin 0.5 mM EDTA, Invitrogen), counted and lysed with a whole cell lysis buffer (10 mM Tris, 1.0 mM EDTA, 50 mM NaCl, 0.5% deoxycholate, 0.5% NP-40, 0.5% SDS, 1.0 mM PMSF, and aprotonin and a cocktail of phosphatase and protease inhibitors). The whole cell lysate was heated to 100°C for 10 min and then fractionated (1000 g, 10 min, 4°C). Protein concentrations were measured with the Pierce BCA Protein Assay. Twenty to 40 µg of protein lysate per lane were loaded onto 10% SDS polyacrylamide gels (Ready-Gels, Biorad) with Laemmli buffer. For immunoblotting, the primary antibodies were diluted in Tween/Tris wash buffer (0.1 mM Tris-HCl pH 7.5, 2.5% Tween-20, 150 mM NaCl) and 5% BSA or nonfat dry milk and incubated overnight at 4°C. Visualization of specific bands was accomplished with an alkaline phosphatase-labeled secondary anti-immunoglobulin antibody and the ECF Chemifluorescent reagent (GE Amersham). Pixel intensity of the imaged bands was measured using STORM (GE Amersham) and Image Quant Software. Normalization for loading was accomplished by reprobing with an anti-actin antibody, quantification of pixel intensity and data normalization.
# HT29 = assay: Sphere formation in serum free media and low attachment vessels; assay type: cell-based; conditions: serum free media, low attachment vessels, 0.1 µM SC-1, Day 1 and Day 5
# Method: HT29 tumor line was cultured at 0.5–8 cells/µl in serum free media (RPMI 1640 containing EGF (20 ng/ml), bFGF (10 ng/ml) and B27 supplement) one day prior to addition of SC-1 (0.1 µM). The number of spheres per well was counted on Day 1 (A) and Day 5 (B) following treatment. Statistically significant effects (*p<0.05) for SC-1 treatment were found at all conditions where spheres formed. A representative experiment of 3 is shown here. (PDF) Click here for additional data file.
# OCT4 [2] = assay: Immunoblotting of OCT4 in remaining colon tumor lines; assay type: cell-based; conditions: 0.1 µM SC-1
# Method: as §1
# HCT-15 [3] = assay: Limiting dilution tumorigenicity, s.c. xenograft without protein support; assay type: in vivo, NOD.SCID mice; conditions: HCT-15 treated 5 days with 0.1 µM SC-1
# Method: (§2) Five day exposures were conducted.
# (§3) Six week old female NOD.SCID mice were randomly assigned to each of 20 treatment arms (n = 5/group). Treated and control colon tumor lines were enzymatically harvested and counted prior to dilution in RPMI 1640 (at 10, 100, 1,000, 10,000 cells/inoculum) for subcutaneous injection into the axillary region using a volume of […]. Positive control groups were established such that tumor formation occurred in all mice in approximately one week thus confirming that all tumor lines studied were tumorigenic. Cell inocula for the positive control groups ranged from 1×10^6 to 2.5×10^6. Cell viability of the cell stocks was assessed by trypan blue exclusion prior to dilution for injection and was routinely found to be >95%. Tumor formation was monitored weekly using caliper measurements and the tumor mass was calculated as weight in mg = 1/2×(tumor length)×(tumor width)^2. All experiments were terminated at 120 days or when tumor weight exceeded 2000 mg for any individual mouse. In selected studies, tumor cells were resuspended in Matrigel (50% concentration, BD Biosciences) prior to injection.
# KM12 = assay: as above; assay type: in vivo, NOD.SCID mice; conditions: KM12 treated 5 days with 0.1 µM SC-1
# Method: as §2, §3
# HCT-15 [4] = assay: Limiting dilution tumorigenicity with Matrigel co-injection; assay type: in vivo, NOD.SCID mice; design: key to Tumorigenicity: Y indicates increased tumor formation or increased time to appearance or both.; Y ^%: Y indicates increased tumor formation when Matrigel was co-injected
# Description: To explore the lack of a tumorigenic effect for SC-1 treated HCT-15 cells, the limiting dilution tumorigenicity assay was repeated with the addition of Matrigel to the injected cells (10, 100, 1000, and 10000 cells per injection). A protein support such as Matrigel may provide anchoring, a substrate for angiogenesis, and growth factors. […] For SC-1 treated cells co-injected with Matrigel, 5 of 5 mice had tumor formation over the 99 day observation period at the 10 cell inoculum (Figure 1).
# as §3
# HCC-2998 = assay: Limiting dilution tumorigenicity, s.c. xenograft without protein support; assay type: in vivo, NOD.SCID mice; design: key to Tumorigenicity: Y indicates increased tumor formation or increased time to appearance or both.; Y ^%: Y indicates increased tumor formation when Matrigel was co-injected
# Method: as §2, §3
# HCT-116 = assay: as above; assay type: in vivo, NOD.SCID mice; design: key to Tumorigenicity: Y indicates increased tumor formation or increased time to appearance or both.; Y ^%: Y indicates increased tumor formation when Matrigel was co-injected
# Method: as §2, §3
# SW-620 = assay: as above; assay type: in vivo, NOD.SCID mice; design: key to Tumorigenicity: Y indicates increased tumor formation or increased time to appearance or both.; Y ^%: Y indicates increased tumor formation when Matrigel was co-injected
# Method: as §2, §3
# [5] = test system: Seven Colon Tumor Lines of the NCI60 Panel; assay: Limiting dilution tumorigenicity, combined colon tumor lines; assay type: in vivo, NOD.SCID mice; conditions: for Tumor take rate, TOTAL: 7 colon tumor lines treated 5 days with 0.1 µM SC-1
# Method: as §2, §3
# Chi square tests and nonparametric conditional estimate for the Cochran Mantel-Haenzel common odds ratio were performed for the limiting dilution tumorigenicity studies. In the later case, the tumor lines were used as the stratification variable and the test evaluated whether the tumor take rate was equal in the two groups (control and treated). The purpose of combining data across distinct colon tumor lines was to aggregate small changes that if summed, may represent a heterogeneous population of patients with colon tumors, similar to analyses in clinical trials.
smiles,measurement,setting,value
Cc1cc(Nc2ncc3c(n2)N(C)C(=O)N(c2cc(NC(=O)c4cccc(C(F)(F)F)c4)ccc2C)C3)n(C)n1 [SC-1],OCT4 protein expression,OCT4 [1],increased
same,Number of spheres per well vs control,HT29,Increased Sphere Formation
same,OCT4 protein expression,OCT4 [2],unchanged or decreased
same,Tumor take rate,HCT-15 [3]; 100 cells inoculated s.c.,0/5
same,Tumor take rate,HCT-15 [3]; 1000 cells inoculated s.c.,0/5
same,Tumor take rate,HCT-15 [3]; 10000 cells inoculated s.c.,0/5
same,Tumor take rate,KM12; 100 cells inoculated s.c.,0/5
same,Tumor take rate,KM12; 1000 cells inoculated s.c.,0/5
same,Tumor take rate,KM12; 10000 cells inoculated s.c.,1/5
same,Tumor formation,"HCT-15 [4]; HCT-15, 100, 1000, and 10000 cells per injection with Matrigel",tumors formed in all mice
same,Tumorigenicity,"HCT-15 [4]; HCT-15, Matrigel co-injected, summary of SC-1 effects",Y ^%
same,Tumor formation (take rate),"HCT-15 [4]; HCT-15 SC-1 treated, 10 cell inoculum co-injected with Matrigel, 99 day observation",5 of 5
same,Tumorigenicity,"HCC-2998; HCC-2998, summary of SC-1 effects",Y
same,Tumor take rate,"HCC-2998; HCC-2998 treated 5 days with 0.1 µM SC-1, 100 cells inoculated s.c.",0/5
same,Tumor take rate,"HCC-2998; HCC-2998 treated 5 days with 0.1 µM SC-1, 1000 cells inoculated s.c.",0/5
same,Tumor take rate,"HCC-2998; HCC-2998 treated 5 days with 0.1 µM SC-1, 10000 cells inoculated s.c.",2/5
same,Calculated Time to 1000 mg Tumor Volume,"HCC-2998; HCC-2998 treated 5 days with 0.1 µM SC-1, 10,000 cells/inoculum, extrapolated from fitted line",139 days
same,Tumorigenicity,"HCT-116; HCT-116, summary of SC-1 effects",Y
same,Tumor take rate,"HCT-116; HCT-116 treated 5 days with 0.1 µM SC-1, 100 cells inoculated s.c.",0/5
same,Tumor take rate,"HCT-116; HCT-116 treated 5 days with 0.1 µM SC-1, 1000 cells inoculated s.c.",2/5
same,Tumor take rate,"HCT-116; HCT-116 treated 5 days with 0.1 µM SC-1, 10000 cells inoculated s.c.",5/5
same,Calculated Time to 1000 mg Tumor Volume,"HCT-116; HCT-116 treated 5 days with 0.1 µM SC-1, 10,000 cells/inoculum, extrapolated from fitted line",45 days
same,Tumorigenicity,"SW-620; SW-620, summary of SC-1 effects",Y
same,Tumor take rate,"SW-620; SW-620 treated 5 days with 0.1 µM SC-1, 100 cells inoculated s.c.",0/5
same,Tumor take rate,"SW-620; SW-620 treated 5 days with 0.1 µM SC-1, 1000 cells inoculated s.c.",0/5
same,Tumor take rate,"SW-620; SW-620 treated 5 days with 0.1 µM SC-1, 10000 cells inoculated s.c.",2/5
same,Calculated Time to 1000 mg Tumor Volume,"SW-620; SW-620 treated 5 days with 0.1 µM SC-1, 10,000 cells/inoculum, extrapolated from fitted line",98 days
same,"Tumor take rate, TOTAL",[5]; 100 cells inoculated s.c.,2/35
same,"Tumor take rate, TOTAL",[5]; 1000 cells inoculated s.c.,6/35
same,"Tumor take rate, TOTAL",[5]; 10000 cells inoculated s.c.,19 of 35 and 19/35
same,"Frequency estimate of tumor initiating ability, increase vs control","[5]; cumulative tumor take rate, 7 colon tumor lines, calculated from Taswell",approximately 2 fold
same,Mean day to 1000 mg tumor,"[5]; mean±s.e.m. of 5 colon lines forming tumors, 10,000 cells/inoculum, 0.1 µM SC-1 pretreatment",83 ± 19 days
